Data taken from patent US7223783B2, “Indolinone derivatives” (Theravance, Inc., priority 2001, dated 2007).
Where two headings read alike, the source gives them in different places.

What was measured:
VEGFR = target: T1, VEGFR (Homo sapiens, UniProt P35968); assay: Ca2+ release assay (FLIPR) in HUVECs; format: cell-based; details: VEGF 40 ng/mL, highest concentration tested 1 μm
T1 construct: against the VEGFR in the FLIPR assay, HUVECs (Walkersville, Md.) were used; endogenous in cells; host or cells: HUVEC
T1 sequence (P35968 20-1356): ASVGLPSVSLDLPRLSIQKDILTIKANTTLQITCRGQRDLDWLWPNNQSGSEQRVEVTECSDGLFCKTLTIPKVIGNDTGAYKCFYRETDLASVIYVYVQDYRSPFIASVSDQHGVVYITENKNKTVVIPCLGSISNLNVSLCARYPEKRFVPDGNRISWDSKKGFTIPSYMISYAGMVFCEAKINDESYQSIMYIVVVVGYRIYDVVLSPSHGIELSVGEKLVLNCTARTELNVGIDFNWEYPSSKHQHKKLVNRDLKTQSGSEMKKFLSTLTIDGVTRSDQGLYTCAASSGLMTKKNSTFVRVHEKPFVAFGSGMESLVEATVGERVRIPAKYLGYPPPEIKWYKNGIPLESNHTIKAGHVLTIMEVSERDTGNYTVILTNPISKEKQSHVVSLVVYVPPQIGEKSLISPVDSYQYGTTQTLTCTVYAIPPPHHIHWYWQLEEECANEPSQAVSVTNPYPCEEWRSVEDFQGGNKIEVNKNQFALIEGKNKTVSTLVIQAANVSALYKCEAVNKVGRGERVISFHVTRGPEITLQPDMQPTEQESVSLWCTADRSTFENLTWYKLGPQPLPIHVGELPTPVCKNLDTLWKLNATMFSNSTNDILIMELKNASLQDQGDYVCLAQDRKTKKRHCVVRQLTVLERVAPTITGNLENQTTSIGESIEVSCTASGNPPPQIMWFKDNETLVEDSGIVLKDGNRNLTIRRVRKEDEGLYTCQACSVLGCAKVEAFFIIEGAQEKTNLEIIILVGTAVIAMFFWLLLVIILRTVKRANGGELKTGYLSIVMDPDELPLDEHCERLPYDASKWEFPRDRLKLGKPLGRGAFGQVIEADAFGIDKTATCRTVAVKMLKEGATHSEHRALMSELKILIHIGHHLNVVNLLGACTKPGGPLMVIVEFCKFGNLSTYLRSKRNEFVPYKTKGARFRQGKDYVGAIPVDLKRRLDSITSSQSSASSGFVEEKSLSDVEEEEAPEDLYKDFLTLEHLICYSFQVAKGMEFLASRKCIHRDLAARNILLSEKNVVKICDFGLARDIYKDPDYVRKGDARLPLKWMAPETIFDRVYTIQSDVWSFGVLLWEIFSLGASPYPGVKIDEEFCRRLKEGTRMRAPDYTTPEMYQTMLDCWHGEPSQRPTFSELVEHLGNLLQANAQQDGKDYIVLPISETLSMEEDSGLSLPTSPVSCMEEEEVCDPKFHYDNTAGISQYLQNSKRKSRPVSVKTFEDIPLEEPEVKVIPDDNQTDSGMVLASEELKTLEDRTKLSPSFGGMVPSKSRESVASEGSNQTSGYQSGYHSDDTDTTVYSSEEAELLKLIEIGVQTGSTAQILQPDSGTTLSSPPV

PDGFR [1] = target: T2, PDGFR (Homo sapiens, UniProt P09619); assay: Immunoprecipitation/Western (IP/Western) receptor autophosphorylation; format: cell-based; design: expressed in transfected cells; host or cells: HEK PDGFR cell line; details: Immunoprecipitation/Western (IP) assay, HEK PDGFR cell line; highest concentration tested 1 μm
T2 sequence (P09619 33-1106): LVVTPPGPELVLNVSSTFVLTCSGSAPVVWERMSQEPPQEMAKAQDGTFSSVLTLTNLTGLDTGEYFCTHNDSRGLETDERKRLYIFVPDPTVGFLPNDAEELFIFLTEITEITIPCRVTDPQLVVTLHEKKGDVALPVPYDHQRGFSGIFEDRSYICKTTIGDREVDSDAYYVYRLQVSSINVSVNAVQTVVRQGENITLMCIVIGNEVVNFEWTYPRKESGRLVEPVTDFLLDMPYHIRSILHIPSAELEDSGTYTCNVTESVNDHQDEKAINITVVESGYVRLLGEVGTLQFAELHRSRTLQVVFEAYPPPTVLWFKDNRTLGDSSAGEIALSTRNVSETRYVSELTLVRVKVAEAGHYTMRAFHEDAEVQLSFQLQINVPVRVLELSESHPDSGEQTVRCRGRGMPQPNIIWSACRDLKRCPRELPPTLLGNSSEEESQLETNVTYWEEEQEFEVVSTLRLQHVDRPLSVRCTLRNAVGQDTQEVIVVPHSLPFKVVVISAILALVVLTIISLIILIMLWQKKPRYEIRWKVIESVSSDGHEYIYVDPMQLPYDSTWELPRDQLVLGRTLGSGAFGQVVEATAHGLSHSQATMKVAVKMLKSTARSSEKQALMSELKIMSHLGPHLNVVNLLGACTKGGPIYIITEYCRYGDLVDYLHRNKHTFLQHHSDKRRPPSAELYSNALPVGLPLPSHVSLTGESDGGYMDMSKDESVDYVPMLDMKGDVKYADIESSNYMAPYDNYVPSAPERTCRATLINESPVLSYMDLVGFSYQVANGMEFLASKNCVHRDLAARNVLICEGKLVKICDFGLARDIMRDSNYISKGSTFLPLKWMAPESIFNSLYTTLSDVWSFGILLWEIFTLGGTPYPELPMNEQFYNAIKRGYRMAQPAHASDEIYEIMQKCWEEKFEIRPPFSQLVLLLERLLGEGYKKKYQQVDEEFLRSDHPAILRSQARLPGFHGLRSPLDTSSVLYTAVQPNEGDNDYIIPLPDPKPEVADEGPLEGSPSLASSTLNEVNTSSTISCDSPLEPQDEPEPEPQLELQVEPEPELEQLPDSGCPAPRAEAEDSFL
Description: Immunoprecipitation/Western (IP/Western)
The binding of growth factors to receptor tyrosine kinases like Flt-3 or PDGFR leads to the autophosphorylation of the receptors. The inhibition of autophosphorylation is the objective pursued with kinase inhibitors. By performing an IP/Western experiment the level of receptor autophosphorylation can be assessed directly.
5×10^6 cells (HEK PDGFR cell line for PDGFR, HEK c-Kit for c-Kit, and THP-1, HL-60 or MV4-11 for Flt-3) were incubated for 30 minutes in 2.5 mL of culture media with a defined concentration of test compound. In order to stimulate receptor autophosphorylation, growth factor (PDGF, SCF, or Flt-3 ligand respectively, 50 ng/mL, Biosource International, Camarillo, Calif.) was added for 5 minutes. The cells were then centrifuged and lysed in 500 μL lysis buffer (50 mM Tris pH 7.4, 1% NP-40, 150 mM NaCl, 1 mM EDTA, 1 mM Na3V04). The lysate is centrifuged and 10 μL of antibody against the respective receptor was added to the supernatant (anti-PDGFR (P20), anti-c-Kit (C-19), and anti-Flt-3 (S18), Santa Cruz Biotechnology, Inc.). The immunocomplexes were isolated with Protein G beads (Sigma, St. Louis, Mo.) and PAGE was performed. A Western Blot was done using an antibody against phospho-tyrosine residues (4G10, Upstate Biotechnology, Lake Placid, N.Y.). The intensity of the phospho-tyrosine signal corresponding to various drug concentrations provides a way to determine the IC50 of the test compound for the inhibition of autophosphorylation.

Flt-3 = target: T3, Flt-3 (Homo sapiens, UniProt P36888); details: Abstract 497, O'Farrell et al., ASH 2001; cited from earlier work
T3 sequence (P36888 27-993): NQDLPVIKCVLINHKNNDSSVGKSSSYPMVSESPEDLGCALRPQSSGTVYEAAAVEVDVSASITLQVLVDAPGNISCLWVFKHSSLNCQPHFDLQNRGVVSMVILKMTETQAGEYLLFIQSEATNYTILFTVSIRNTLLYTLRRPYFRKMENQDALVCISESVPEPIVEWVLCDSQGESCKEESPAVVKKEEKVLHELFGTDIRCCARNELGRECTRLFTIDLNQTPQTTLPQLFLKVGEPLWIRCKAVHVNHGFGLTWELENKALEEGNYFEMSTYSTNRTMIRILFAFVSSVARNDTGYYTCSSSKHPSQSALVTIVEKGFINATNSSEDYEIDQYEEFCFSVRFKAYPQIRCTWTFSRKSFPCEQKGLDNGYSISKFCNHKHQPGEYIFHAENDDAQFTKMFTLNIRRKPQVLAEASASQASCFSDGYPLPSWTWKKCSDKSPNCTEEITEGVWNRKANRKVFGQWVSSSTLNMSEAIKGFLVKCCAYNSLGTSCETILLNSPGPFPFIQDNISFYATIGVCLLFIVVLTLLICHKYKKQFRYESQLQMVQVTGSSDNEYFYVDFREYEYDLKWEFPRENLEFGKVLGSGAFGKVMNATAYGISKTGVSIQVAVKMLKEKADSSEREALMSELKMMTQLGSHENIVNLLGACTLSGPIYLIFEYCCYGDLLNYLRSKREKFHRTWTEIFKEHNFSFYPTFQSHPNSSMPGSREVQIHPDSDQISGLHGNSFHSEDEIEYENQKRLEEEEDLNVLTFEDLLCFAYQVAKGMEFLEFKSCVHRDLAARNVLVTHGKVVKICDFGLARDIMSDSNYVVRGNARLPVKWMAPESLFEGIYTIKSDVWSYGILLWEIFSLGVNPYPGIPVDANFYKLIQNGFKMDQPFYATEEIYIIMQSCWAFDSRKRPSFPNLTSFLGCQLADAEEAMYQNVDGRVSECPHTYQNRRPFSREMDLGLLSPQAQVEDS

Flt-3 ITD = target: T4, Flt-3 ITD (Homo sapiens, UniProt P36888, INS600HVDFREYEYD); assay: Proliferation and viability assay (MTT), cytotoxicity assay; format: cell-based; details: MV4-11 AML cells expressing Flt-3 ITD, 48 hours, highest concentration tested 10 μm
T4 construct: MV4-11 cells express Flt-3 ITD; endogenous in cells; host or cells: MV4-11
T4 sequence (P36888 with tags, fused parts or gaps INS600HVDFREYEYD): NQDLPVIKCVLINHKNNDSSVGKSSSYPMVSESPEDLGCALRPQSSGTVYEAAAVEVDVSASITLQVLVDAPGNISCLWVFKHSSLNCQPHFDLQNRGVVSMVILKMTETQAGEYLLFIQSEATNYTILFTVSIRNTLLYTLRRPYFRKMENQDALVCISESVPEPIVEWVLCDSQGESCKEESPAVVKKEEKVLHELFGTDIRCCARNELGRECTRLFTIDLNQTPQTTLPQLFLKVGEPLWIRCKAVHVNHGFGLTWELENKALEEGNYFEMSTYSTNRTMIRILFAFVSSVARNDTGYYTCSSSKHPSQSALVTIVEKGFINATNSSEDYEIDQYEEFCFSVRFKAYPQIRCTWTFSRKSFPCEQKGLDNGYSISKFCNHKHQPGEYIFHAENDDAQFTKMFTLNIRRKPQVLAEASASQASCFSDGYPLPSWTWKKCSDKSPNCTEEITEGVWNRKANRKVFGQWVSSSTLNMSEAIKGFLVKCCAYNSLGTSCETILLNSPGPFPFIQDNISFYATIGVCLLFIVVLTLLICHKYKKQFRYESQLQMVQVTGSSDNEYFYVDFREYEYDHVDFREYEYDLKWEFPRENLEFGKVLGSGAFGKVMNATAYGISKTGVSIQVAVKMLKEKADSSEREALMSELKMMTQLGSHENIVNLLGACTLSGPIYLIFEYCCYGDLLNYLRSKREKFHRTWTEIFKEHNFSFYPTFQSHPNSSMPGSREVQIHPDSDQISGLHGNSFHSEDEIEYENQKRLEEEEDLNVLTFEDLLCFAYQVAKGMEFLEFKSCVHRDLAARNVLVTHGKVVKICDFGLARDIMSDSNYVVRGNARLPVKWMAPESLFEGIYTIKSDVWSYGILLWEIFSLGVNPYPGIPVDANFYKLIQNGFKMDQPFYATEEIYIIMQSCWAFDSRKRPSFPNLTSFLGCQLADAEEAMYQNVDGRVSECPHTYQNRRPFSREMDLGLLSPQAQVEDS

PDGFR [2] = target: T2, PDGFR; assay: Ca2+ release assay (FLIPR) in HEK cell line expressing human PDGFR; format: cell-based; design: expressed in transfected cells; host or cells: HEK; details: HEK cells expressing human PDGFR, PDGF 40 ng/mL
[3] = upon oral and intravenous administration; cited from earlier work
[4] = prior art statement; cited from earlier work
Solubility in water = format: physicochemical
[5] = system: receptor tyrosine kinases PDGFR, c-Kit, VEGFR and Flt-3; assay: One or more of the FLIPR, MTT and IP/Western whole cell assays; format: cell-based
Description: In order to determine the IC50 of test compounds against the VEGFR in the FLIPR assay, HUVECs (Walkersville, Md.) were used. For the determination of IC50s against the PDGFR, a HEK cell line were used that expresses the human PDGFR. 40–50000 cells per well were plated in a 96 well plate. The cells were incubated for 3–4 hours to adhere to the plate. Subsequently, the cells were washed twice in FLIPR buffer (1×HBS, 2 mM CaCl, 10 mM HEPES, pH7.4, 2.5 mM Probenecid, 0.1% BSA). After the second wash 50 μL of the Ca^2+ sensitive dye FLUO-3 (FLUO-3 (AM) TEF Labs, 50 μg in 10 mL FLIPR buffer) was added to the remaining 50 μL buffer in each well. After loading the cells for one hour, the cells were washed twice and the test compounds were added in 50 μL as a 2× solution to the 50 μL of buffer in each well. The cells were incubated with the compounds for 30 minutes and then VEGF (40 ng/mL, BioSource International) for the VEGFR or PDGF (40 ng/mL, BioSource International) for the PDGFR was added. The change in fluorescence intensity was measured in a Fluorometric Image Plate Reader (FLIPR) (Molecular Devices).
The inhibition of mutant Flt-3 ITD is expected to affect the proliferation and viability of AML cells with this mutation. […] The plate was incubated at 37 degrees Celsius for 24 hours and, then, the optical density of the wells was determined spectrophotometrically at 550 nm. […]

[6] = Pharmacokinetics in male Sprague Dawley rats; format: in vivo, rat
Description: To evaluate pharmacokinetics, male Sprague Dawley rats (CD strain, Charles River Laboratories, Wilmington, Mass.) were dosed with test compounds via intravenous (IV) administration, at 1 mg/kg concentration, and oral (PO) administration, at 10 mg/kg concentration. Blood samples were collected from animals pre-dose, and at 2, 5, 15, and 30 minutes, and at 1, 2, 4, 6, 8, and 24 hours post-dose. Plasma concentrations were determined by liquid chromatography-mass spectrometry (LC-MS) (MDS SCIEX API 4000, Applied Biosystems, Foster City, Calif.). Standard pharmacokinetic parameters were assessed by non-compartmental methods using the WinNonlin Version 3.2 software package (Pharsight, Mountain View, Calif.). Oral bioavailability was determined as the ratio of the area under the curve (AUC) in the graph of plasma concentration versus time for PO administration to the corresponding quantity for IV administration.

SMILES | VEGFR IC50 (VEGFR) | PDGFR IC50 (PDGFR [1]) | Ability to inhibit the receptor tyrosine kinase Flt-3 (Flt-3) | Flt-3 EC50 (Flt-3 ITD) | IC50 (VEGFR) | IC50 (PDGFR [2]) | PDGFR IC50 (PDGFR [2]) | EC50 (Flt-3 ITD) | bioavailability [3] | Solubility in water [4] | Solubility in water (Solubility in water) | Inhibition of one or more of PDGFR, c-Kit, VEGFR and Flt-3 [5] | IC50 (PDGFR [1]) | bioavailability ([6]; male, Sprague-Dawley, rat, plasma, oral, 10 mg/kg) | Absorption on oral administration ([6]; oral administration)
Cc1[nH]c(C=C2C(=O)Nc3ccccc32)c(C)c1CCC(=O)O [SU6668, 3-[2,4-dimethyl-5-(2-oxo-1,2-dihydroindol-3-ylidenemethyl)-1H-pyrrol-3-yl]propionic acid, reference compound] | No activity** | No activity**^# | lack the ability | No activity* |  |  |  |  |  |  |  |  |  |  | 
CCN1CCN(C(=O)CCc2c(C)[nH]c(C=C3C(=O)Nc4ccccc43)c2C)CC1.O=C(O)C(F)(F)F [Example 22, 3-[3,5-dimethyl-4-[3-oxo-3-(4-ethyl)piperazin-1-ylpropyl]-1H-pyrrol-2-ylmethylene]-1,3-dihydroindol-2-one, trifluoroacetate] | sub-micromolar activity |  |  | sub-micromolar activity | 30 nM | 90 nM | sub-micromolar activity | 220 nM |  |  |  |  |  |  | 
Cc1cc(C)c(/C=C2\C(=O)Nc3ccccc32)[nH]1 [SU5416] |  |  |  |  |  |  |  |  | low bioavailability | poor solubility in water |  |  |  |  | 
Cc1[nH]c(C=C2C(=O)Nc3ccccc32)c(C)c1CCC(=O)N1CCNCC1.O=C(O)C(F)(F)F [Example 1, 3-[3,5-dimethyl-4-(3-oxo-3-piperazin-1-yl-propyl)-1H-pyrrol-2-ylmethylene]-1,3-dihydroindol-2-one, trifluoroacetate] | sub-micromolar activity | sub-micromolar activity |  | sub-micromolar activity | 20 nM |  |  | 240 nM |  |  | high solubility in water | highly potent and selective inhibitor | 30 nM | 50.6% | excellent absorption
